Like-named read-outs stand apart in the source and are kept apart here.
Key:
SMARCA4 = SMARCA4 (Homo sapiens, UniProt P51532); experiment: HiBiT assay for protein degradation, Hela SMARCA4-HiBiT cells (A series); assay type: cell-based; parameters: fuse HiBiT to the carboxy terminus of SMARCA2 (Promega CS302365) or SMARCA4 (Promega CS3023225); host or cells: HeLa (CRISPR/Cas9 HiBiT knock-in); settings: for DC50: read-out: SMARC A4 Hela HiBit DC50
How it was run: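 SMARCA4 degradation was measured in HeLa cells in which HiBiT had been knocked into the SMARCA4 carboxy terminus via CRISPR/Cas9 (Promega CS3023225). Cells were maintained in DMEM with FBS and penicillin-streptomycin. At the end of treatment, SMARCA4 levels were read by lytic HiBiT luminescence (Nano-Glo®, Promega N3050), and data were analyzed with GraphPad Prism.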

SMARCA2 = SMARCA2 (Homo sapiens, UniProt P51531); experiment: HiBiT assay for protein degradation, Hela SMARCA2-HiBiT cells (A series); assay type: cell-based; parameters: Hela cells were genetically modified via CRISPR/Cas9 to fuse HiBiT to the carboxy terminus of SMARCA2; host or cells: HeLa (CRISPR/Cas9 HiBiT knock-in); settings: for Dmax: read-out: SMARC A2 Hela HiBit Dmax (%); for DC50: read-out: SMARC A2 Hela HiBit DC50;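 on SMARC A2 Hela HiBit Dmax (%): 24 h compound treatment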
Sequence of SMARCA2 (P51531 whole entry): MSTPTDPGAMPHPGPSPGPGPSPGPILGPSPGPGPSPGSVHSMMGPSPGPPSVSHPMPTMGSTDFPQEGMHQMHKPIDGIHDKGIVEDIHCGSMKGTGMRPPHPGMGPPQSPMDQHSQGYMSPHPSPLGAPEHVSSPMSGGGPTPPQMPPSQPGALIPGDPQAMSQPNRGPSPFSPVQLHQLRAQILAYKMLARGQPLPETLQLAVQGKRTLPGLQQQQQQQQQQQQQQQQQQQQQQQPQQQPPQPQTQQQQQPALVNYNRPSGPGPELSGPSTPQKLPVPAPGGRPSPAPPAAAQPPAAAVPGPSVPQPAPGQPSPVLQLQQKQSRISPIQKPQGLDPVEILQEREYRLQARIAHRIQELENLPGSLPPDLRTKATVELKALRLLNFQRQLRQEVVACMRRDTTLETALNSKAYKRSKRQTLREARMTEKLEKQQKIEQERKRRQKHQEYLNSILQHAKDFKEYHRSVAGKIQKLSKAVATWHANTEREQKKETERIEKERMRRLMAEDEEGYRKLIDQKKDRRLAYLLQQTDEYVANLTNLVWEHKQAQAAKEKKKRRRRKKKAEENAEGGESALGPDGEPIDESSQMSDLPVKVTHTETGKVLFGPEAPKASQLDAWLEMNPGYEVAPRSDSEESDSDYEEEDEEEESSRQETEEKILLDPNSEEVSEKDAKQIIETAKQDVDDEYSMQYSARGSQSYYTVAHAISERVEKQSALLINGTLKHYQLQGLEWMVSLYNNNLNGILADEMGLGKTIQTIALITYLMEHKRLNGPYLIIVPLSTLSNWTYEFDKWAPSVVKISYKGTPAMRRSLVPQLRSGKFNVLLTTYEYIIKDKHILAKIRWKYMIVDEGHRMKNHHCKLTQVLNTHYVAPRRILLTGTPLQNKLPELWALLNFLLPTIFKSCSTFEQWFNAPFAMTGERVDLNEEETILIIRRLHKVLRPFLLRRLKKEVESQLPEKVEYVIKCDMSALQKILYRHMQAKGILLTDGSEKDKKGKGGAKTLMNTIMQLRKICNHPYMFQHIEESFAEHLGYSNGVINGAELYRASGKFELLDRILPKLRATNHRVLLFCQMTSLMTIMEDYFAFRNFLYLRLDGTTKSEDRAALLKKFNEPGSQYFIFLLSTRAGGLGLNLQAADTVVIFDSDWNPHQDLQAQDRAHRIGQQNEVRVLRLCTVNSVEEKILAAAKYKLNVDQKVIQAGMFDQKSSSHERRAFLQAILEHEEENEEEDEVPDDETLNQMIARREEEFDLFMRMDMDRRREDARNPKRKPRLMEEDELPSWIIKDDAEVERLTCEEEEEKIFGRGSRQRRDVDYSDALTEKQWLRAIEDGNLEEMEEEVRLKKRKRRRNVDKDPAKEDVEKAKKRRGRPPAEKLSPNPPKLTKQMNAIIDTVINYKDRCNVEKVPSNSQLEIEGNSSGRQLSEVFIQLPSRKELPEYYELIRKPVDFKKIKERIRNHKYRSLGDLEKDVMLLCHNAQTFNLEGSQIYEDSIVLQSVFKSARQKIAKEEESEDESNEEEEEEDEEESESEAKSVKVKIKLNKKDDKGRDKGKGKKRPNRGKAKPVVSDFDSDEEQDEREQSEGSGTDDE
How it was run: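 SMARCA2 degradation was measured in HeLa cells whose endogenous SMARCA2 carries a carboxy-terminal HiBiT tag introduced by CRISPR/Cas9 (Promega CS302365). Cells were maintained in DMEM with FBS and penicillin-streptomycin. SMARCA2 levels were read at the end of the experiment by Nano-Glo® HiBiT lytic luminescence (Promega N3050) and analyzed in GraphPad Prism.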

[1] = Hela SMARCA4-HiBiT cells, 24 hours treatment
[2] = Hela SMARCA2-HiBiT cells, 24 hours treatment
[3] = Hela SMARCA4-HiBiT cells, 24 hours treatment, read-out: SMARC A4 Hela HiBit Dmax

Sequence of SMARCA4 (P51532 whole entry): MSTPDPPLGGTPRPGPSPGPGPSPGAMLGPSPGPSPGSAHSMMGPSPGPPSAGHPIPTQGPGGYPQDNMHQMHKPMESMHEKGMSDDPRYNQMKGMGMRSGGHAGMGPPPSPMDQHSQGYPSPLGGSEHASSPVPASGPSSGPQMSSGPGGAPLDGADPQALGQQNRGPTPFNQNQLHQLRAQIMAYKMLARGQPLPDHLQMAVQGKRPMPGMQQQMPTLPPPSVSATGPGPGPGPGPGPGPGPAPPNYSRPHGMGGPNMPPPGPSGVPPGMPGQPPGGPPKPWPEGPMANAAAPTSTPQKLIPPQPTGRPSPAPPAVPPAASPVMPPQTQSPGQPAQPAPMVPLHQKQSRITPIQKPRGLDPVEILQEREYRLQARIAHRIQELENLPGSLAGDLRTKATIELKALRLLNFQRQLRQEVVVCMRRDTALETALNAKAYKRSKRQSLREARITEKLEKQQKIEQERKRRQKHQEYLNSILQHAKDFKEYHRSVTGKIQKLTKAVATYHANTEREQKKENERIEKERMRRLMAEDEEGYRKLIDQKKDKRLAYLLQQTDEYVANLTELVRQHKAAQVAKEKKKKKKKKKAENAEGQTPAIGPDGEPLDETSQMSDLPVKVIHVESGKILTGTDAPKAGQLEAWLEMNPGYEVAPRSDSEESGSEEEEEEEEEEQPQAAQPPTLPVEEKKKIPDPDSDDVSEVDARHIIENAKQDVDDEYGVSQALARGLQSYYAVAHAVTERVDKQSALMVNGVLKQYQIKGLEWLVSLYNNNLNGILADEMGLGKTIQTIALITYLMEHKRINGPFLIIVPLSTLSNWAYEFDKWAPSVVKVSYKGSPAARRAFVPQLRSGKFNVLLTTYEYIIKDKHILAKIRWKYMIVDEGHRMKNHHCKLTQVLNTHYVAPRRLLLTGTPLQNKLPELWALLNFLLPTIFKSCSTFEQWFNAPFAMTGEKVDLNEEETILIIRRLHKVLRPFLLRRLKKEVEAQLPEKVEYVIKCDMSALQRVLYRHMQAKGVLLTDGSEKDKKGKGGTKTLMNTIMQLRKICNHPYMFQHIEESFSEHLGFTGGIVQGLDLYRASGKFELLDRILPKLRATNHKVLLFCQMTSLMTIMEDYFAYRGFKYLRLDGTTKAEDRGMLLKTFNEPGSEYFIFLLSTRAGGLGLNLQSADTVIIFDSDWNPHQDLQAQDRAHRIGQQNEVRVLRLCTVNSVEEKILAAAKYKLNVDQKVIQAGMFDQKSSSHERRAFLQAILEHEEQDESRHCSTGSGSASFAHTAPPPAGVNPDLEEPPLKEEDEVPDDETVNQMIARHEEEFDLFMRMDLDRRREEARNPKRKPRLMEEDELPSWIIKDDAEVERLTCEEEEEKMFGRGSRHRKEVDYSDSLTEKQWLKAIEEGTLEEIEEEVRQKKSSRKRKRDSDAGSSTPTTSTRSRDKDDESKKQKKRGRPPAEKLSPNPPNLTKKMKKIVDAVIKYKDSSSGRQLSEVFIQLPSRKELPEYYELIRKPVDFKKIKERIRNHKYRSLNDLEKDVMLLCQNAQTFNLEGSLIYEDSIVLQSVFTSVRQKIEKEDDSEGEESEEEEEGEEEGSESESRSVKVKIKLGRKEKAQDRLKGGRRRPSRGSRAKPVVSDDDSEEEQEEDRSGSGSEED

| SMILES | DC50 (SMARCA4; [1]) [nM] | DC50 (SMARCA2; [2]) [nM] | Dmax (SMARCA4; [3]) [%] | Dmax (SMARCA2; [2]) [%] | Dmax (SMARCA4; HeLa, read-out: SMARC A4 Hela HiBit Dmax(%)) [%] | Dmax (SMARCA2; HeLa) [%] | Dmax (SMARCA4; Hela SMARCA4-HiBiT cells, 24 hours treatment, read-out: SMARC A4 Hela HiBit Dmax(%)) [%] | DC50 (SMARCA4) [nM] | DC50 (SMARCA2) [nM] |
| --- | --- | --- | --- | --- | --- | --- | --- | --- | --- |
| Cc1ncsc1-c1ccc([C@H](CCCCCN2CCC(c3ccc4c(c3)C3(CCCCC3)c3nc(=O)c5c(Cl)cccc5n3-4)CC2)NC(=O)[C@@H]2C[C@@H](O)CN2C(=O)[C@@H](NC(=O)C2(F)CC2)C(C)(C)C)cc1 [Compound A3, (2S,4R)—N—((S)-6-(4-(4′-chloro-5′-oxo-5′H-spiro[cyclohexane-1,7′-indolo[1,2-a]quinazolin]-9′-yl)piperidin-1-yl)-1-(4-(4-methylthiazol-5-yl)phenyl)hexyl)-1-((S)-2-(1-fluorocyclopropane-1-carboxamido)-3,3-dimethylbutanoyl)-4-hydroxypyrrolidine-2-carboxamide] | < 100 | < 100 | – | – | > 90 | > 90 | – | – | – |
| Cc1ncsc1-c1ccc([C@H](C)NC(=O)[C@@H]2C[C@@H](O)CN2C(=O)[C@@H](NC(=O)C2CC(CN3CCC(c4ccc5c(c4)C4(CCCCC4)c4nc(=O)c6c(Br)cccc6n4-5)CC3)C2)C(C)(C)C)cc1 (stereo partly drawn) [Compound A20, (2S,4R)-1-((S)-2-(3-((4-(4′-bromo-5′-oxo-5′H-spiro[cyclohexane-1,7′-indolo[1,2-a]quinazolin]-9′-yl)piperidin-1-yl)methyl)cyclobutane-1-carboxamido)-3,3-dimethylbutanoyl)-4-hydroxy-N—((S)-1-(4-(4-methylthiazol-5-yl)phenyl)ethyl)pyrrolidine-2-carboxamide] | – | – | – | – | – | > 90 | < 50 | > 1000 | < 100 |
| Cc1ncsc1-c1ccc([C@H](C)NC(=O)[C@@H]2C[C@@H](O)CN2C(=O)[C@H](C2CCN(C(=O)CCCN3CCC(c4ccc5c(c4)-n4c(nc(=O)c6c(Cl)cccc64)C54CCCCC4)CC3)CC2)n2cc(C3CC3)nn2)cc1 [Compound A106, (2S,4R)-1-((S)-2-(1-(4-(4-(4′-chloro-5′-oxo-5′H-spiro[cyclohexane-1,7′-indolo[1,2-a]quinazolin]-10′-yl)piperidin-1-yl)butanoyl)piperidin-4-yl)-2-(4-cyclopropyl-1H-1,2,3-triazol-1-yl)acetyl)-4-hydroxy-N—((S)-1-(4-(4-methylthiazol-5-yl)phenyl)ethyl)pyrrolidine-2-carboxamide] | 100 to 1000 | 100 to 1000 | < 50 | 70 to 90 | – | – | – | – | – |

Continued, in another order:

| DC50 (SMARCA4; [1]) [nM] | DC50 (SMARCA2; [2]) [nM] | Dmax (SMARCA4; [3]) [%] | Dmax (SMARCA2; [2]) [%] | SMILES | Dmax (SMARCA4; HeLa, read-out: SMARC A4 Hela HiBit Dmax(%)) [%] | Dmax (SMARCA2; HeLa) [%] | Dmax (SMARCA4; Hela SMARCA4-HiBiT cells, 24 hours treatment, read-out: SMARC A4 Hela HiBit Dmax(%)) [%] | DC50 (SMARCA4) [nM] | DC50 (SMARCA2) [nM] |
| --- | --- | --- | --- | --- | --- | --- | --- | --- | --- |
| 100 to 1000 | < 10 | 50 to 69 | > 90 | Cc1ccccc1-c1ccc([C@H](CN2CCOCC2)NC(=O)[C@@H]2C[C@@H](O)CN2C(=O)[C@@H](n2cc([C@H]3CC[C@H](CN4CCC(c5ccc6c(c5)-n5c(nc(=O)c7c(Cl)cccc75)C65CCCCC5)CC4)CC3)nn2)C(C)(C)C)cc1 [Compound A163, (2S,4R)-1-((S)-2-(4-((1r,4S)-4-((4-(4′-chloro-5′-oxo-5′H-spiro[cyclohexane-1,7′-indolo[1,2-a]quinazolin]-10′-yl)piperidin-1-yl)methyl)cyclohexyl)-1H-1,2,3-triazol-1-yl)-3,3-dimethylbutanoyl)-4-hydroxy-N—((R)-1-(2′-methyl-[1,1′-biphenyl]-4-yl)-2-morpholinoethyl)pyrrolidine-2-carboxamide] | – | – | – | – | – |
| > 1000 | 100 to 1000 | < 50 | 70 to 90 | Cc1ncsc1-c1ccc([C@H](CN2CCC(C(=O)O)CC2)NC(=O)[C@@H]2C[C@@H](O)CN2C(=O)[C@@H](n2cc([C@H]3CC[C@H](CN4CCC(c5ccc6c(c5)-n5c(nc(=O)c7c(Cl)cccc75)C65CCCCC5)CC4)CC3)nn2)C(C)(C)C)cc1 [Compound A156, 1-((R)-2-((2S,4R)-1-((S)-2-(4-((1r,4S)-4-((4-(4′-chloro-5′-oxo-5′H-spiro[cyclohexane-1,7′-indolo[1,2-a]quinazolin]-10′-yl)piperidin-1-yl)methyl)cyclohexyl)-1H-1,2,3-triazol-1-yl)-3,3-dimethylbutanoyl)-4-hydroxypyrrolidine-2-carboxamido)-2-(4-(4-methylthiazol-5-yl)phenyl)ethyl)piperidine-4-carboxylic acid] | – | – | – | – | – |

Source: patent publication US20260092071A1, “COMPOUNDS AND COMPOSITIONS AS SMARCA2/4 DEGRADERS AND USES THEREOF” (REGENTS OF THE UNIVERSITY OF MICHIGAN, priority 2022, published 2026)
